Measurements published in the supplement of paper PMC6965134.
± gives the standard deviation of the averaged measurements.

Test: TIMS collisional cross section (CCS, N2) of the lipid ion; higher = larger ion cross section
Details: ionization mode: positive, one isomer drawn
Method: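 Lipid extracts of human plasma (NIST SRM 1950), mouse liver and HeLa cells were separated by nanoflow C18 LC (30 min gradient, 60 °C) and analysed by TIMS-PASEF on a timsTOF Pro in positive ion mode. Ion mobility was calibrated with the Agilent tuning mix and converted to collisional cross sections (Mason–Schamp) in N2 drift gas. Lipids were identified by MS/MS (SimLipid) and manual curation. SMILES are LIPID MAPS representative structures for the annotated lipid.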

CCCCCCCCCCCCC/C=C/C=C/C(=O)OC[C@@H](O)COP(=O)([O-])OCC[N+](C)(C)C (ion (formula + adduct): [C26H50NO7P+H] 1+)
TIMS collisional cross section (sample type: HeLa): 228.2 Å²
TIMS collisional cross section (sample type: plasma): 228.1 ± 0.42 Å²

CC(C)CCC[C@@H](C)[C@H]1CC[C@H]2C3=CC[C@H]4[C@](C)(C=O)[C@@H](O)CC[C@]4(C)[C@H]3CC[C@]12C (ion (formula + adduct): [C29H48O2+H] 1+)
TIMS collisional cross section (sample type: plasma): 219.5 Å²

CC(C)CCC[C@@H](C)[C@H]1CC[C@H]2[C@@H]3C(=O)C=C4C=CCC[C@]4(C)[C@H]3CC[C@]12C [3,5-cholestadien-7-one] (ion (formula + adduct): [C27H42O+H] 1+)
TIMS collisional cross section (sample type: HeLa): 203.63 ± 0.75 Å²
TIMS collisional cross section (sample type: plasma): 203.1 Å²

[C@]12(CC=C3C[C@@H](O)CC[C@]3(C)[C@@]1([H])CC[C@]1(C)[C@@]([H])([C@@](C)([H])CC[C@@H]3O[C@@]3(C)C)CC[C@@]21[H])[H] [24,25-epoxy-cholesterol] (ion (formula + adduct): [C27H44O2+H] 1+)
TIMS collisional cross section (sample type: HeLa): 210.4 Å²
TIMS collisional cross section (sample type: Liver): 209.6 Å²
TIMS collisional cross section (sample type: plasma): 210.5 Å²

CC(C)C(=O)C[C@](C)(O)[C@H]1CC[C@H]2[C@@H]3C[C@H](O)[C@H]4C[C@@H](O)CC[C@]4(C)C3=CC[C@@]21C [24-northornasterol A] (ion (formula + adduct): [C26H42O4+H] 1+)
TIMS collisional cross section (sample type: plasma): 207.8 Å²

C12CC[C@@]3([H])C(C)(C)[C@@H](O)CC[C@]3(C)C=1CC[C@]1(C)[C@@]([H])([C@@](C)([H])CC/C=C(\C)/C)CC[C@@]21C=O [32-oxolanosterol] (ion (formula + adduct): [C30H48O2+H] 1+)
TIMS collisional cross section (sample type: HeLa): 211.6 Å²

CCCCCCCCCCCCC/C=C/[C@@H](O)[C@H](CO)NC(=O)CCCCCCCCCCCCCCCCCCCCC [Cer d18:1_22:0@] (ion (formula + adduct): [C40H79NO3+H] 1+)
TIMS collisional cross section (sample type: HeLa): 274.3 Å²
TIMS collisional cross section (sample type: Liver): 274.9 Å²

CCCCCCCCCCCCC/C=C/[C@@H](O)[C@H](CO)NC(=O)CCCCCCCCCCCCCCCCCCCCCC [Cer d18:1_23:0@] (ion (formula + adduct): [C41H81NO3+H] 1+)
TIMS collisional cross section (sample type: HeLa): 276.9 Å²
TIMS collisional cross section (sample type: Liver): 277.5 Å²

CCCCCCCCCCCCC/C=C/[C@@H](O)[C@H](CO)NC(=O)CCCCCCCCCCCCCCCCCCCCCCC [Cer d18:1_24:0@] (ion (formula + adduct): [C42H83NO3+H] 1+)
TIMS collisional cross section (sample type: Liver): 281.2 Å²
TIMS collisional cross section (sample type: plasma): 281.1 Å²

CCCCCCCC/C=C\CCCCCCCCCCCCCC(=O)N[C@@H](CO)[C@H](O)/C=C/CCCCCCCCCCCCC [Cer d18:1_24:1@] (ion (formula + adduct): [C42H81NO3+H] 1+)
TIMS collisional cross section (sample type: HeLa): 278.2 Å²
TIMS collisional cross section (sample type: Liver): 283 Å²
TIMS collisional cross section (sample type: plasma): 280.9 ± 3.8 Å²

CCCCCCCCCCCCC/C=C/[C@@H](O)[C@H](CO)NC(=O)CCCCCCCCCCCCCCCCCCCCCCCC [Cer d18:1_25:0@] (ion (formula + adduct): [C43H85NO3+H] 1+)
TIMS collisional cross section (sample type: Liver): 284.1 Å²

CCCCCCCC/C=C\CCCCCCCCCCCCCCCC(=O)N[C@@H](CO)[C@H](O)/C=C/CCCCCCCCCCCCC [Cer d18:1_26:1@] (ion (formula + adduct): [C44H85NO3+H] 1+)
TIMS collisional cross section (sample type: HeLa): 284.9 Å²
TIMS collisional cross section (sample type: Liver): 289.4 Å²

CC(C)CCC[C@@H](C)[C@H]1CC[C@H]2[C@@H]3CC=C4C[C@@H](O)CC[C@]4(C)[C@H]3CC[C@]12C [Cholesterol] (ion (formula + adduct): [C27H46O+H] 1+)
TIMS collisional cross section (sample type: HeLa): 207.1 Å²

CC(C)(O)CCC(=O)[C@](C)(O)[C@H]1[C@H](O)C[C@@]2(C)[C@@H]3CC=C4[C@@H](C[C@@H](O)[C@@H](O)C4(C)C)[C@]3(C)C(=O)C[C@]12C [Cucurbitacin P] (ion (formula + adduct): [C30H48O7+H] 1+)
TIMS collisional cross section (sample type: Liver): 231.3 Å²

CCCCCCCCCCCCCCCC(=O)O[C@@H](CO)COC(=O)CCCCCCCCCCCCC [DG 14:0_16:0_0:0] (ion (formula + adduct): [C33H64O5+NH4] 1+)
TIMS collisional cross section (sample type: HeLa): 252.4 Å²
TIMS collisional cross section (sample type: Liver): 252.7 Å²

CCCCCC/C=C\CCCCCCCC(=O)O[C@@H](CO)COC(=O)CCCCCCCCCCCCC [DG 14:0_16:1_0:0] (ion (formula + adduct): [C33H62O5+NH4] 1+)
TIMS collisional cross section (sample type: HeLa): 248.3 Å²

CCCCCCCC/C=C\CCCCCCCC(=O)O[C@@H](CO)COC(=O)CCCCCCCCCCCCC [DG 14:0_18:1_0:0] (ion (formula + adduct): [C35H66O5+NH4] 1+)
TIMS collisional cross section (sample type: plasma): 255.9 Å²
